Patent publication US8778966B2, “Quinolinone derivatives as PARP and tank inhibitors” (Janssen Pharmaceutica, NV, priority 2007, dated 2014)
Where two headings read alike, the source gives them in different places.

How the values were obtained:
[1] = target: T1, Human PARP-1 enzyme (Homo sapiens, UniProt P09874); experiment: In vitro Scintillation Proximity Assay (SPA) for PARP-1 inhibitory activity; format: biochemical; details: read-out: in vitro SPA assay PARP-1 pIC50 (converted)
T1 construct: purchased Trevigen
How it was run: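 SPA assay: nicked-DNA-activated PARP-1 (0.1–0.2 μg/ml) ADP-ribosylates biotinylated histones (2 μg/ml) using [3H]-NAD+, 20 min at RT in Tris pH 8/DTT/MgCl2, stopped with 2 mM NAD+. Blank-subtracted cpm expressed as % control; IC50 by linear interpolation, reported as pIC50 (10−5 to 3×10−9 M tested).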

[2] = tested on: HCT116 cells; experiment: Antiproliferative activity, Alamar Blue assay, HCT116 cells; format: cell-based, human; details: Homo sapiens, HCT-116, HCT116 cells, read-out: HCT116 antiproliferative activity pIC50 (converted)
How it was run: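 Readout is resazurin fluorescence (ex 540, em 590 nm) after a 4 h dye incubation at 37 °C, following 4-day compound treatment of HCT116 cells plated 24 h earlier. Results expressed as % viable cells versus untreated; pIC50 derived from probit-fitted IC50.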

[3] = tested on: PC-3 cells; experiment: Antiproliferative activity, Alamar Blue assay, PC-3 cells; format: cell-based, human; details: Homo sapiens, PC-3, PC3 cells, read-out: PC3 antiproliferative activity pIC50 (converted)
How it was run: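 Resazurin-based fluorescence (540 nm ex/590 nm em) measured after 4-day compound treatment plus 24 hrs dye incubation at 37° C. Cells plated at 4.5×10^3 cells/ml, adhered 24 hr first. pIC50 from probit-derived IC50 on % viable cells versus untreated, triplicate wells.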

T1 sequence (P09874 whole entry): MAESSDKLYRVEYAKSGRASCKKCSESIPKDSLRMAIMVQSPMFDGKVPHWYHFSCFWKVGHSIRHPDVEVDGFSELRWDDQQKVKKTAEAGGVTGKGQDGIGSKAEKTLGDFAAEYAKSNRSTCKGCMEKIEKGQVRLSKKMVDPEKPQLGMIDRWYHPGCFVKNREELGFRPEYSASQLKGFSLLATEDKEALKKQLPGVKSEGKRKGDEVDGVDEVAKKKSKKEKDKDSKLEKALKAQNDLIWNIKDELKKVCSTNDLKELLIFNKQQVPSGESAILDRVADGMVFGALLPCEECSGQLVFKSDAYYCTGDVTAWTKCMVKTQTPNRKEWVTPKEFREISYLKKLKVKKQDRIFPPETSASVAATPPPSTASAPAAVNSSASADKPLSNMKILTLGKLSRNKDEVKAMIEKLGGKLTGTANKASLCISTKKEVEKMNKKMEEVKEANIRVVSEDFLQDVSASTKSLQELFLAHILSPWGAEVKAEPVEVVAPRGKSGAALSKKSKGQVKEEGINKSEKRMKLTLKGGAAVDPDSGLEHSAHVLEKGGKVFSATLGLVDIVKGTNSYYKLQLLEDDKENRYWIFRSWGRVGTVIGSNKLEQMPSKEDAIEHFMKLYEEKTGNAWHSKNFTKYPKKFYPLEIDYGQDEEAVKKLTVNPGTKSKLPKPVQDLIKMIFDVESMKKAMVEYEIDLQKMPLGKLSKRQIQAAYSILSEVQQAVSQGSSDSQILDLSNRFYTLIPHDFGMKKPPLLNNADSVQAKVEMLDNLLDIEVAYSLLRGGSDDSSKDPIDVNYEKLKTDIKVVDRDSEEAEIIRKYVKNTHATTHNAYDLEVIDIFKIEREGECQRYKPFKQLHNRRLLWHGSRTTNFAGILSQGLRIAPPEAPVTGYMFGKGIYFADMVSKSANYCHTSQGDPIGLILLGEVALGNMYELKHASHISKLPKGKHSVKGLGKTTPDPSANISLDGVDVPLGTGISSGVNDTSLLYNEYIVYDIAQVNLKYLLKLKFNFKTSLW

SMILES	IC50 [1] [µM]	IC50 ([2]; Alamar Blue) [µM]	IC50 ([3]; Alamar Blue) [µM]	IC50 [2] [µM]	IC50 [3] [µM]
CCc1cc2ccc(C(C)(C#N)Cc3cccc(OC)c3F)cc2[nH]c1=O (stereo not drawn) [Compound 286]	0.0251	5.01	2		
CCc1cc2ccc(C(C)(C#N)Cc3cc(C(C)C)ccc3OC)cc2[nH]c1=O (stereo not drawn) [Compound 288]	0.158	10	2		
CCc1cc2ccc(C(C)(C#N)Cc3cc(OC)c(OC)c(OC)c3)cc2[nH]c1=O (stereo not drawn) [Compound 289]	0.158	0.126	0.316		
CCc1cc2ccc(C(C)(C#N)Cc3cccc(/C=N/O)c3)cc2[nH]c1=O (stereo not drawn) [Compound 299]	0.0316	0.631	1		
CCc1cc2ccc(C(C)(C#N)CN(C)Cc3ccc(C#N)cc3)cc2[nH]c1=O (stereo not drawn) [Compound 300]	0.158	0.631	0.501		
CCc1cc2ccc(C(C)(C#N)CNCc3ccc(C#N)cc3)cc2[nH]c1=O (stereo not drawn) [Compound 302]	0.126	5.01	5.01		
Cc1cc2ccc(C(C)(C#N)Cc3cccc(Oc4ccccc4)c3)cc2[nH]c1=O (stereo not drawn) [Compound 305]	0.2	0.794	3.16		
CCc1cc2ccc(C(C)(C#N)Cc3nc(C#N)cc(OC)n3)cc2[nH]c1=O (stereo not drawn) [Compound 313]	0.1	0.2	0.251		
CCc1cc2ccc(C(C)(C#N)Cc3cc(C#N)nc(OC)c3)cc2[nH]c1=O (stereo not drawn) [Compound 314]	0.0501			0.631	1
CCc1cc2ccc(C(C)(C#N)Cc3cc(N(C)C)nc(C#N)n3)cc2[nH]c1=O (stereo not drawn) [Compound 317]	0.0794	5.01	5.01		
CCc1cc2ccc(C(C)(C#N)Cc3nc(C#N)cc(N(C)C)n3)cc2[nH]c1=O (stereo not drawn) [Compound 318]	0.0794	0.631	0.631		
CCc1cc2ccc(C(C)(C#N)Cc3cc(C#N)nc(C)n3)cc2[nH]c1=O (stereo not drawn) [Compound 319]	0.2	2.51	3.98		
CCc1cc2ccc(C(C)(C#N)Cc3cc(N(C)C)nc(N(C)C)n3)cc2[nH]c1=O (stereo not drawn) [Compound 320]	0.2	0.398	0.631		
CCc1cc2ccc(C(C)(C#N)Cc3cc(N(C)C)nc(C)n3)cc2[nH]c1=O (stereo not drawn) [Compound 322]	0.2	2	2.51		
CCc1cc2ccc(C(C)(C#N)Cc3cc(Cl)nc(N(C)C)c3)cc2[nH]c1=O (stereo not drawn) [Compound 323]	0.0794	0.631	1		
CCc1cc2ccc(C(C)(C#N)Cc3cc(C#N)nc(N(C)C)c3)cc2[nH]c1=O (stereo not drawn) [Compound 325]	0.0794			0.794	1.26

SMILES	IC50 [1] [µM]	IC50 ([2]; Alamar Blue) [µM]	IC50 ([3]; Alamar Blue) [µM]	IC50 [2] [µM]	IC50 [3] [µM]
CCc1cc2ccc(C(C)(C#N)Cc3cccc(NC)n3)cc2[nH]c1=O (stereo not drawn) [Compound 339]	0.0398	2	3.16		
CCc1cc2ccc(C(C)(C#N)Cc3c4ccccc4nn3C)cc2[nH]c1=O (stereo not drawn) [Compound 347]	0.158			3.16	3.98
CCc1cc2ccc(C(C)(C#N)Cc3cc(OC)nc(OC)c3)cc2[nH]c1=O (stereo not drawn) [Compound 350]	0.0398	0.794	1.58		
CCc1cc2ccc(C(C)(C#N)Cc3cc(Cl)nc(OC)c3)cc2[nH]c1=O (stereo not drawn) [Compound 351]	0.0631	0.398	0.501		
CCc1cc2ccc(C(C)(C#N)Cc3cc(N(C)C)nc(OC)n3)cc2[nH]c1=O (stereo not drawn) [Compound 354]	0.0794	3.16	6.31		
CCc1cc2ccc(C(C)(C#N)Cc3nc(OC)cc(N(C)C)n3)cc2[nH]c1=O (stereo not drawn) [Compound 355]	0.0501	0.2	0.398		
CCc1cc2ccc(C(C)(C#N)Cc3cc(Cl)nc(C)n3)cc2[nH]c1=O (stereo not drawn) [Compound 365]	0.126	0.631	0.631		
CCc1cc2ccc(C(C)(C#N)CN3CCC(c4ccccc4)CC3)cc2[nH]c1=O (stereo not drawn) [Compound 375]	0.158	2	1		
CCc1cc2ccc(C(C)(C#N)CN3CCN(c4ccc(C#N)cn4)CC3)cc2[nH]c1=O (stereo not drawn) [Compound 377]	0.0501	1	0.794		
CCc1cc2ccc(C(C)(C#N)Cc3cc(Br)cc4c3OCC4)cc2[nH]c1=O (stereo not drawn) [Compound 378]	0.0794	0.501	0.794		
CCc1cc2ccc(C(C)(C#N)Cc3cccc4[nH]ccc34)cc2[nH]c1=O (stereo not drawn) [Compound 379]	0.0251	1.26	1.26		
Cc1cc2ccc([C@](C)(C#N)[C@H]3CCc4ccccc43)cc2[nH]c1=O [Compound 387]	0.2	2.51	5.01		
Cc1cc2ccc(C(C)(C#N)C3CCc4ccccc43)cc2[nH]c1=O (stereo not drawn) [Compound 392]	0.126	0.398	0.794		
Cc1cc2ccc(C(C)(C#N)C3CCCc4ccccc43)cc2[nH]c1=O (stereo not drawn) [Compound 404]	0.2	1.58	3.98		
Cc1cc2ccc(C(C)(C#N)Cc3cccc(/C=C/CCO)c3)cc2[nH]c1=O (stereo not drawn) [Compound 409]	0.1	0.398	0.501		
